Assay [1] in a line: Antiplatelet activity against rabbit platelet assessed as inhibition of arachidonic acid-induced platelet aggregation at 50 uM preincubated 3 mins before arachidonic acid challenge by turbidimetric method relative to control. On the set-up: scale not given: the % may be the effect or the level left. The class given is functional, Oryctolagus cuniculus.
The nature of assay [2]: Antiplatelet activity against rabbit platelet assessed as inhibition of platelet-activating factor-induced platelet aggregation at 50 uM preincubated 3 mins before PAF challenge by turbidimetric method relative to control. In kind it is functional, Oryctolagus cuniculus. More on the design: scale not given: the % may be the effect or the level left.
A short description of assay [3]: Antiplatelet activity against rabbit platelet assessed as inhibition of thrombin-induced platelet aggregation at 50 uM preincubated 3 mins before thrombin challenge by turbidimetric method relative to control. In kind it is functional, Oryctolagus cuniculus. On the set-up: scale not given: the % may be the effect or the level left.
The nature of assay [4]: Antiplatelet activity against rabbit platelet assessed as inhibition of collagen-induced platelet aggregation at 50 uM preincubated 3 mins before collagen challenge by turbidimetric method relative to control. The class given is functional, Oryctolagus cuniculus. On the set-up: scale not given: the % may be the effect or the level left.
Assay [5] can be described thus: Antiplatelet activity against rabbit platelet assessed as inhibition of platelet-activating factor-induced platelet aggregation at 20 uM preincubated 3 mins before PAF challenge by turbidimetric method relative to control. On the set-up: Activity: scale not given: the % may be the effect or the level left. The conditions noted are these: for IC50: Oryctolagus cuniculus, Platelet. The class given is functional, cell-based, Oryctolagus cuniculus.

For assay [6], the system named is Brain. Nature of the assay: Antioxidant activity in Wistar rat brain homogenate assessed as inhibition of Fe2+-induced TBARS formation by lipid peroxidation assay. The class given is functional, tissue-based.
Assay [7] in a line: Antiproliferative activity against PDGF-stimulated rat VSMC assessed as inhibition of [3H]thymidine incorporation into DNA after 20 hrs by liquid scintillation counting relative to control. In kind it is functional. In general terms: Uptake of a labelled nucleoside into DNA is a usual measure of proliferation.
Assay [8] in a line: (§1) Antiproliferative activity against FCS-stimulated rat VSMC assessed as inhibition of [3H]thymidine incorporation into DNA after 20 hrs by liquid scintillation counting relative to control. The class given is functional.
Assay [9] is described as follows: (§2) Antiproliferative activity against ADP-stimulated rat VSMC assessed as inhibition of [3H]thymidine incorporation into DNA after 20 hrs by liquid scintillation counting relative to control. The class given is functional.
Assay [10] in a line: (§3) Antiproliferative activity against 5-HT-stimulated rat VSMC assessed as inhibition of [3H]thymidine incorporation into DNA after 20 hrs by liquid scintillation counting relative to control. In kind it is functional.
Assay [11] relates to VSMC. Described as §1. The class given is functional.
The test system of assay [12] is VSMC. The description is as §2. The class given is functional.
Assay [13] concerns VSMC. Described as §3. The class given is functional.
Assay [14] deals with Brain. Put plainly: Antioxidant activity in Wistar rat brain homogenate assessed as inhibition of Fe2+-induced TBARS formation at 100 uM by lipid peroxidation assay. In kind it is functional, tissue-based.
The nature of assay [15]: Antiplatelet activity against rabbit platelet assessed as inhibition of arachidonic acid-induced platelet aggregation at 100 uM preincubated 3 mins before arachidonic acid challenge by turbidimetric method relative to control. In kind it is functional, Oryctolagus cuniculus. On the set-up: scale not given: the % may be the effect or the level left.
A short description of assay [16]: Antiplatelet activity against rabbit platelet assessed as inhibition of platelet-activating factor-induced platelet aggregation at 100 uM preincubated 3 mins before PAF challenge by turbidimetric method relative to control. More on the design: scale not given: the % may be the effect or the level left. The class given is functional, Oryctolagus cuniculus.
Assay [17] in a line: Antiplatelet activity against rabbit platelet assessed as inhibition of arachidonic acid-induced platelet aggregation at 20 uM preincubated 3 mins before arachidonic acid challenge by turbidimetric method relative to control. On the set-up: scale not given: the % may be the effect or the level left. The class given is functional, Oryctolagus cuniculus.
The nature of assay [18]: Antiplatelet activity against rabbit platelet assessed as inhibition of thrombin-induced platelet aggregation at 300 uM preincubated 3 mins before thrombin challenge by turbidimetric method relative to control. The class given is functional, Oryctolagus cuniculus. On the set-up: scale not given: the % may be the effect or the level left.
Assay [19] is described as follows: Antiplatelet activity against rabbit platelet assessed as inhibition of arachidonic acid-induced platelet aggregation at 300 uM preincubated 3 mins before arachidonic acid challenge by turbidimetric method relative to control. In kind it is functional, Oryctolagus cuniculus. More on the design: scale not given: the % may be the effect or the level left.
Assay [20] is described as follows: Antiplatelet activity against rabbit platelet assessed as inhibition of collagen-induced platelet aggregation at 300 uM preincubated 3 mins before collagen challenge by turbidimetric method relative to control. In kind it is functional, Oryctolagus cuniculus. More on the design: scale not given: the % may be the effect or the level left.
A short description of assay [21]: Antiplatelet activity against rabbit platelet assessed as inhibition of platelet-activating factor-induced platelet aggregation at 300 uM preincubated 3 mins before PAF challenge by turbidimetric method relative to control. In kind it is functional, Oryctolagus cuniculus. More on the design: scale not given: the % may be the effect or the level left.
Assay [22] is described as follows: Antiplatelet activity against rabbit platelet assessed as inhibition of thrombin-induced platelet aggregation at 100 uM preincubated 3 mins before thrombin challenge by turbidimetric method. The class given is functional, Oryctolagus cuniculus. On the set-up: scale not given: the % may be the effect or the level left.
Assay [23] is described as follows: Antiplatelet activity against rabbit platelet assessed as inhibition of collagen-induced platelet aggregation at 100 uM preincubated 3 mins before collagen challenge by turbidimetric method relative to control. The class given is functional, Oryctolagus cuniculus. More on the design: scale not given: the % may be the effect or the level left.

Molecules are shown by their SMILES.

As for `CC(=O)Oc1ccccc1C(=O)O` [ASPIRIN], the Activity came out at 0% in [1], 90.5% in [2], 91.9% in assay [3] and 85.4% in [4].

For `CC(C)=CCc1cc2c(cc1O)O/C(=C\c1ccc(O)c(O)c1)C2=O` [BROUSSOAURONE A], in [5], the IC50 amounted to 1200 nM. In addition, the Activity result in assay [6] is “Dose-dependent effect”.

Consider `CC(C)=CCc1c([C@@H]2CCc3ccc(O)cc3O2)cc2c(c1O)OC(C)(C)C(O)C2O` (stereo not given in full) [BROUSSOFLAVAN A], for which the IC50 in [5] amounted to 2100 nM. The Activity entry in assay [6] was “Dose-dependent effect”. Further, the “inhibition (INH)” value in assay [7] turned out to be 258%; in [8], 39.5%; in assay [9], 67%; in [10], 19%.

As to `CC(C)=CCc1c(-c2oc3c(CC=C(C)C)c(O)cc(O)c3c(=O)c2O)cc(O)c(O)c1CC=C(C)C` [BROUSSOFLAVONOL E], the IC50 in [5] is 1000 nM. Besides, the Activity result in assay [6], in assay [11], in assay [12] and in assay [13] was “Dose-dependent effect” each time. Also, the “inhibition (INH)” value in assay [7] is given as 127%; in [8] it was 0%; in assay [9], 0.4%; in assay [10], 0%.

For the molecule `CC(C)=CCc1cc(-c2oc3c(CC=C(C)C)c(O)cc(O)c3c(=O)c2O)ccc1O` [BROUSSOFLAVONOL F], the IC50 in assay [5] worked out at 2700 nM. Besides, the Activity result in [6], in assay [11], in assay [12] and in [13] was “Dose-dependent effect” throughout. Besides, the “inhibition (INH)” value in [7] came out at 127%; in assay [8] it was 0%; in assay [9], 7.8%; in [10], 0%.

In the case of `Cc1cc(C(C)(C)C)c(O)c(C(C)(C)C)c1` [BUTYLATED HYDROXYTOLUENE], the 50% inhibitory concentration (IC50) in assay [5] was 14500 nM. In assay [14], the inhibition is 91.3%.

Take `CC(C)=CCc1c(-c2ccc(O)cc2O)oc2c(CC=C(C)C)c(O)cc(O)c2c1=O` [KUWANON C]: the Activity in assay [15] turned out to be 5.9%; in [16], 26.9%; in assay [1], 60.2%; in assay [2], 67.6%; in [17], 83.9%; in [5] it was 78.8%. In addition, the Activity in assay [18] worked out at 54.8%; in [19], 0%; in [20], 5.5%; in assay [21], 0%.

Take `CC(C)=CCc1c(-c2ccc(O)cc2O)oc2c3c(cc(O)c2c1=O)OC(C)(C)C=C3` [MORUSIN]: the Activity in [22] amounted to 81.8%; in assay [15], 0%; in assay [23], 5.3%; in [16] it was 0%; in assay [1] it was 74.2%; in assay [2], 62.5%. Also, the Activity in [17] turned out to be 82.8%; in assay [5], 81.3%.

By IC50 is commonly meant the concentration needed to halve the response being measured. The inhibition is the change of the read-out against control, counted positive when it falls.
